Assay results reported in ChEMBL document CHEMBL1944561, “Discovery and SAR exploration of a novel series of imidazo[4,5-b]pyrazin-2-ones as potent and selective mTOR kinase inhibitors” (Bioorg Med Chem Lett, 2011).

Tests used:
[1] = target: T1, Protein kinase C zeta type (Homo sapiens) (UniProt Q05513); test: Inhibition of PKC-zeta assessed as activity remaining at 10 uM
T1 sequence (whole entry): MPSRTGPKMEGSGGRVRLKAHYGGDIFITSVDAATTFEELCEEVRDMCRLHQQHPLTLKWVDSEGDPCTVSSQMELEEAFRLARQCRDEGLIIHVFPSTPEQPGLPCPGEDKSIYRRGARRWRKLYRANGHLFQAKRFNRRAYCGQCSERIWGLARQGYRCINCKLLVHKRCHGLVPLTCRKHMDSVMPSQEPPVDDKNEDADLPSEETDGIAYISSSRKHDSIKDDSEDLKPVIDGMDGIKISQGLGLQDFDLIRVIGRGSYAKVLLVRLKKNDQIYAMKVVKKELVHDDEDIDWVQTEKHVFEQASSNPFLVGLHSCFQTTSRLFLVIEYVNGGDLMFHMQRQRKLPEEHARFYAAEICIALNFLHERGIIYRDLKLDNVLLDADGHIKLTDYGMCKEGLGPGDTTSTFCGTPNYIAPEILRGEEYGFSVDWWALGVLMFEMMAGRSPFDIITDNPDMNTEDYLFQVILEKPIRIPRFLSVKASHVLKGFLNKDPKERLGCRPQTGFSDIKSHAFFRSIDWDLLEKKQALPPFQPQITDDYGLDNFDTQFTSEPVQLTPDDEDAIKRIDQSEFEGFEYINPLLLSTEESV

[2] = target: T2, Tyrosine-protein kinase ITK/TSK (Homo sapiens) (UniProt Q08881); test: Inhibition of Itk assessed as activity remaining at 10 uM
T2 sequence (whole entry): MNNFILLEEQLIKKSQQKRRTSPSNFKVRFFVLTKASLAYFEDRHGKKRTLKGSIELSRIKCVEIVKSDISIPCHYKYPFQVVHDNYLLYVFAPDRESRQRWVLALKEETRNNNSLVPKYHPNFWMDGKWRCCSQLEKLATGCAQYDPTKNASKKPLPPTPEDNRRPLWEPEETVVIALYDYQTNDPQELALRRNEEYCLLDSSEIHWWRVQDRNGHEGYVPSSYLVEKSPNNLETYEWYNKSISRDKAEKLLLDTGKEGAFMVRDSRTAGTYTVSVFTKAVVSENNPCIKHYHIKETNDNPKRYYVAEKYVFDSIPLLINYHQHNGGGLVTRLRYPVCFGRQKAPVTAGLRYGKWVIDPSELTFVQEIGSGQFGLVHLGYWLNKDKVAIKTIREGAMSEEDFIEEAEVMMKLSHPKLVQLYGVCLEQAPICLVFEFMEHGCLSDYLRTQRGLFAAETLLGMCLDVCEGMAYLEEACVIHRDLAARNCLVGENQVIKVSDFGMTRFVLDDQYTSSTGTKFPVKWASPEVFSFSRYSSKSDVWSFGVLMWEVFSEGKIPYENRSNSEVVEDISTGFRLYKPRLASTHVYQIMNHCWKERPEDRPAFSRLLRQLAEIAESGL

[3] = target: Serine/threonine-protein kinase pim-2 (Homo sapiens) (UniProt Q9P1W9); test: Inhibition of Pim2 assessed as activity remaining at 10 uM
Sequence of Serine/threonine-protein kinase pim-2 (Homo sapiens) (Q9P1W9 whole entry, looked up): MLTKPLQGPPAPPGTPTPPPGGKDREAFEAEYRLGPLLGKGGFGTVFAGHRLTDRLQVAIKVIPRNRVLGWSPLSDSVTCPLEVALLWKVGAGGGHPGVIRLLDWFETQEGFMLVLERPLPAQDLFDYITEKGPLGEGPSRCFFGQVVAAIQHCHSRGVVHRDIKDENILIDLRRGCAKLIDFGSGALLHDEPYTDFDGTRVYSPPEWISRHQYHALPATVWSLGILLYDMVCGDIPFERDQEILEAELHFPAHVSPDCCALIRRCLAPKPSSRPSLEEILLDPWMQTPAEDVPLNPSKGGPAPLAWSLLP

[4] = Inhibition of PKA assessed as activity remaining at 10 uM
[5] = target: Receptor-type tyrosine-protein kinase FLT3 (Homo sapiens) (UniProt P36888); test: Inhibition of Flt3 assessed as activity remaining at 10 uM
Sequence of Receptor-type tyrosine-protein kinase FLT3 (Homo sapiens) (P36888 whole entry): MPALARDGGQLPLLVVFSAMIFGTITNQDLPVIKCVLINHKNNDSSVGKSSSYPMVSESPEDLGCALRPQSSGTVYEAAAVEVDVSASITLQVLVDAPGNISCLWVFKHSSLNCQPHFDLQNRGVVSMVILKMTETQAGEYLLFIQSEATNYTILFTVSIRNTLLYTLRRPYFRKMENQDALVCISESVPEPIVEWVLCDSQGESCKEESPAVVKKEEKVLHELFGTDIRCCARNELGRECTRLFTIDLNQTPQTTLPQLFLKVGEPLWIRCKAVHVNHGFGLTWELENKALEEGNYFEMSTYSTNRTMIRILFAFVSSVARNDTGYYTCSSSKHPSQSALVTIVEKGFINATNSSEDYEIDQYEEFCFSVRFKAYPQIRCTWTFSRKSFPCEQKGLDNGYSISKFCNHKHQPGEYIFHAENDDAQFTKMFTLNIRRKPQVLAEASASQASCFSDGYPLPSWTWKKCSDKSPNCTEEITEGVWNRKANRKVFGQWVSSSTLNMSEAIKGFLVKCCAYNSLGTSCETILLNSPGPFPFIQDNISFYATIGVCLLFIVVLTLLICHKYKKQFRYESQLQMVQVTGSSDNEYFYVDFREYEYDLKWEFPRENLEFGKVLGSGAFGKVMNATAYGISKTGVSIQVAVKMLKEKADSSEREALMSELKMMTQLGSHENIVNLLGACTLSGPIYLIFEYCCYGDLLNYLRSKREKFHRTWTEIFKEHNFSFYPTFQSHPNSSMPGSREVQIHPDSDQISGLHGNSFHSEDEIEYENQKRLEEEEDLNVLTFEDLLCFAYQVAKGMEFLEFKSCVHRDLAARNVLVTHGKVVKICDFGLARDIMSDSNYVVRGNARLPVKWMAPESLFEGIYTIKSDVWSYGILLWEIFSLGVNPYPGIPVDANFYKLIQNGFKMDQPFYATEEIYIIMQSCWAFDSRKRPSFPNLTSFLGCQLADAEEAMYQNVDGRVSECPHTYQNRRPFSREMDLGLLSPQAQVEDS

[6] = target: T3, Serine/threonine-protein kinase Sgk1 (Homo sapiens) (UniProt O00141); test: Inhibition of SGK assessed as activity remaining at 10 uM
T3 sequence (whole entry): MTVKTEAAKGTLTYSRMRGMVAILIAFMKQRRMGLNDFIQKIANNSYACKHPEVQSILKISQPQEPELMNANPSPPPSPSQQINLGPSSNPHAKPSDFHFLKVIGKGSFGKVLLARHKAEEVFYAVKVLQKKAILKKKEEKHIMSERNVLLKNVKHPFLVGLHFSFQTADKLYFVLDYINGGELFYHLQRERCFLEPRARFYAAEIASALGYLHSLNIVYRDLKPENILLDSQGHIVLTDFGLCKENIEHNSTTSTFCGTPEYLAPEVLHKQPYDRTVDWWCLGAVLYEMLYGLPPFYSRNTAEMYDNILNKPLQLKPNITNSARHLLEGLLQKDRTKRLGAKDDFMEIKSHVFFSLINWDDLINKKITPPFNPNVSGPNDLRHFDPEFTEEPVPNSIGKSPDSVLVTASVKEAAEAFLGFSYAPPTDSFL

[7] = Inhibition of CK2 assessed as activity remaining at 10 uM
[8] = target: Glycogen synthase kinase-3 alpha (Homo sapiens, UniProt P49840); test: Inhibition of GSK3alpha assessed as activity remaining at 10 uM
Sequence of Glycogen synthase kinase-3 alpha (P49840 2-483 limits assumed): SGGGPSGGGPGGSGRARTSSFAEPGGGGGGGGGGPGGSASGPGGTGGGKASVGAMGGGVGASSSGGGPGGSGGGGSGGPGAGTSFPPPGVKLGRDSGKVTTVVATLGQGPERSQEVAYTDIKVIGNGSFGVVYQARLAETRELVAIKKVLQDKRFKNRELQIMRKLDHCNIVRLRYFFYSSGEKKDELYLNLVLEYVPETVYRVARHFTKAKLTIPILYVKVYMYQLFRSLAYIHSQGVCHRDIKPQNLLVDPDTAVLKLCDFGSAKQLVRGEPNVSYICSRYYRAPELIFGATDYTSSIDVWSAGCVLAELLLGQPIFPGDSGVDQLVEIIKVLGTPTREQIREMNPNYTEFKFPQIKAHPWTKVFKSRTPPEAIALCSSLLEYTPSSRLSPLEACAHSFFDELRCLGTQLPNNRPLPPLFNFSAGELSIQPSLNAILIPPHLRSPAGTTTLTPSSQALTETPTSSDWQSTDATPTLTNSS

[9] = target: Insulin-like growth factor 1 receptor (Homo sapiens) (UniProt P08069); test: Inhibition of IGF1R assessed as activity remaining at 10 uM
Sequence of Insulin-like growth factor 1 receptor (Homo sapiens) (P08069 31-736 limits assumed): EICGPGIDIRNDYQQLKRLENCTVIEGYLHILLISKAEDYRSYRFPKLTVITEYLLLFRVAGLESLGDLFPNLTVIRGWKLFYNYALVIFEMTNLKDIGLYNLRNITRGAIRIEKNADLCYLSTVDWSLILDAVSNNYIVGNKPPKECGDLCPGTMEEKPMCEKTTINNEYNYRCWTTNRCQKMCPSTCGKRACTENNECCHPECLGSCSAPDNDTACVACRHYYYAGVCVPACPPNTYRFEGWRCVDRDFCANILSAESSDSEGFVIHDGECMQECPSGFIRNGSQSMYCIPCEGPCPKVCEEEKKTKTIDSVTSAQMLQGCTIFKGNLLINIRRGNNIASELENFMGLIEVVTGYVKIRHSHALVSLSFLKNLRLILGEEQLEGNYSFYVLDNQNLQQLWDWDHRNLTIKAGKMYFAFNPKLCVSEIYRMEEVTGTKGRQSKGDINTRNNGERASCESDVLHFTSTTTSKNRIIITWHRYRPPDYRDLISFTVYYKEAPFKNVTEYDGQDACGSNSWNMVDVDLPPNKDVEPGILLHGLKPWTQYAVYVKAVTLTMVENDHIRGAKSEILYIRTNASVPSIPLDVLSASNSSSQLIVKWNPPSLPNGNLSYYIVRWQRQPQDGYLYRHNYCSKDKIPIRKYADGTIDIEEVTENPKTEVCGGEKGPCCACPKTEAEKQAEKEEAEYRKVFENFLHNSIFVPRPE
Sequence of Insulin-like growth factor 1 receptor (Homo sapiens) (P08069 741-1367 limits assumed): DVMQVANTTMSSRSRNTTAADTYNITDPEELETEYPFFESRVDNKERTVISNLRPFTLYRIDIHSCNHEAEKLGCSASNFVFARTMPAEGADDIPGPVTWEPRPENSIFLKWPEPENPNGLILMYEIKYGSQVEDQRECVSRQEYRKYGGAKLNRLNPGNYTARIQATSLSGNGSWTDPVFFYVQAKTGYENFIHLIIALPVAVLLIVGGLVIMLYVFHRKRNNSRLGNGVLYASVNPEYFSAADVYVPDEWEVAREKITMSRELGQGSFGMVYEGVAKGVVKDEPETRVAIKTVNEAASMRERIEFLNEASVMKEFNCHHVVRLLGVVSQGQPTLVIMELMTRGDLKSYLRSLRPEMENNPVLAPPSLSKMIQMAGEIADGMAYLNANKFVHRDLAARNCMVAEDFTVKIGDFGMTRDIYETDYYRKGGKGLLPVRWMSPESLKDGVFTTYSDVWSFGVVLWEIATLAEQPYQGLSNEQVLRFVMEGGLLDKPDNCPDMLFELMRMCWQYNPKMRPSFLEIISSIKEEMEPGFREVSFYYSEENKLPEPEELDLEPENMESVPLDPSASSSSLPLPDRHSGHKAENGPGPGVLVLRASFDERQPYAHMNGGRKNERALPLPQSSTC

[10] = target: Epidermal growth factor receptor (Homo sapiens) (UniProt P00533); test: Inhibition of EGFR assessed as activity remaining at 10 uM
Sequence of Epidermal growth factor receptor (Homo sapiens) (P00533 whole entry): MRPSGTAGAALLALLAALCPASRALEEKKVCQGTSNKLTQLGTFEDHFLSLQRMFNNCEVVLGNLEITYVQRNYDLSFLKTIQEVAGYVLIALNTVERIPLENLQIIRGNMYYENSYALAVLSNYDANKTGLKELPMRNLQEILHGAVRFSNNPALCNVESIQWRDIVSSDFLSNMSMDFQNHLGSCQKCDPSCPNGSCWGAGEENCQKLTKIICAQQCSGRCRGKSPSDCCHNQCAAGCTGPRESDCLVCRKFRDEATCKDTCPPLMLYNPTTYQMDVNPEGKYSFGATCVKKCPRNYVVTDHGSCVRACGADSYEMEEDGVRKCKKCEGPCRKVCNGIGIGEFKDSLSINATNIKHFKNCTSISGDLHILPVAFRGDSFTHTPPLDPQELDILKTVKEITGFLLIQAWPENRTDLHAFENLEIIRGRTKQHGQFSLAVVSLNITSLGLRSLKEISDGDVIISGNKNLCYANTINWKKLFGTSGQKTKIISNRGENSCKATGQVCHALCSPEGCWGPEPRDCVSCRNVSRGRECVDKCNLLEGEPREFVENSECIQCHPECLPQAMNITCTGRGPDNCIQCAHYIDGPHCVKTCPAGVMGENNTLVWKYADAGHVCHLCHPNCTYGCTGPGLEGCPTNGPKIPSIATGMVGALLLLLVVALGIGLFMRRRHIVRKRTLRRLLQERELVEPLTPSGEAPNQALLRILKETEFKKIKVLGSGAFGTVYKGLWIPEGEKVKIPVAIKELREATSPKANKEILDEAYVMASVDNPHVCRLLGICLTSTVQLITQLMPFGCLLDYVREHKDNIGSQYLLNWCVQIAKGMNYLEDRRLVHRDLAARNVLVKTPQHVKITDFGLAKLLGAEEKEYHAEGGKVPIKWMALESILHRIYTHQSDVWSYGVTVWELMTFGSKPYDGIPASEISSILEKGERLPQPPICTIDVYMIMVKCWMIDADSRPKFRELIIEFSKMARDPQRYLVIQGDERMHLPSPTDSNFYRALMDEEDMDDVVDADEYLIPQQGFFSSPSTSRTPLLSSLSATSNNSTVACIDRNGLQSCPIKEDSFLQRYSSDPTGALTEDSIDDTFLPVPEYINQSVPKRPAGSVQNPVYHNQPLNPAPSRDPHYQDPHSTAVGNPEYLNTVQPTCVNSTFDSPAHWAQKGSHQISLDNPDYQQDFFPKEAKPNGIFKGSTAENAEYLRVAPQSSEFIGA

[11] = target: Protein-tyrosine kinase 6 (Homo sapiens) (UniProt Q13882); test: Inhibition of BRK assessed as activity remaining at 10 uM
Sequence of Protein-tyrosine kinase 6 (Homo sapiens) (Q13882 whole entry, looked up): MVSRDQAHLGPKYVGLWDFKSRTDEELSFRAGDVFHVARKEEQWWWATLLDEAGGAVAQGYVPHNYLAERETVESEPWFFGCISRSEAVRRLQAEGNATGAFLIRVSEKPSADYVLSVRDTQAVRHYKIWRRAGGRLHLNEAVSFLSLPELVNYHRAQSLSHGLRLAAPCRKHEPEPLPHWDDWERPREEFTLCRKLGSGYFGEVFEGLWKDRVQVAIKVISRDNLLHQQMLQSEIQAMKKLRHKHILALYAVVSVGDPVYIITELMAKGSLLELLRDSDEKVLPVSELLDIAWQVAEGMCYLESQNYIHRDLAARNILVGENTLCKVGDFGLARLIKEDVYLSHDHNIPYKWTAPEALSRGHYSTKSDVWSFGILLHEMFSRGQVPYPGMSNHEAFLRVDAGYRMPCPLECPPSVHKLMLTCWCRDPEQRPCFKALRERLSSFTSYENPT

[12] = target: High affinity nerve growth factor receptor (Homo sapiens) (UniProt P04629); test: Inhibition of TrkA assessed as activity remaining at 10 uM

Row | Activity [1] [%] | Activity [2] [%] | Activity [3] [%] | Activity [4] [%] | Activity [5] [%] | Activity [6] [%] | Activity [7] [%] | Activity [8] [%] | Activity [9] [%] | Activity [10] [%] | Activity [11] [%] | Activity [12] [%] | SMILES
1 | 75 | 96 | 101 | 90 | 46 | 53 | 73 | 3 | 96 | 87 | 82 | 61 | O=c1[nH]c2ncc(-c3ccc4[nH]cnc4c3)nc2n1CC1CCCCC1
2 | 94 | 99 | 93 | 95 | 55 | 97 | 99 | 39 | 95 | 88 | 93 | 77 | O=c1[nH]c2ncc(-c3ccc(-c4nc[nH]n4)cc3)nc2n1CC1CCOCC1
3 | 91 | 90 | 91 | 95 | 71 | 96 | 95 | 16 | 91 | 98 | 92 | 86 | CC(C)(O)c1ccc(-c2cnc3[nH]c(=O)n(CC4CCCCC4)c3n2)cc1
